Assay results published in the supplement of paper PMC11061612.

Tests used:
[1] = tested on: SKG-IIIa (Cervical Carcinoma); test: Bliss excess, mean over the matrix (fraction); higher = more synergy
In short: (§1)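 Cell lines grown in DMEM/F12 or RPMI with 10% FBS were plated in 1536-well plates and held 24 hours at 37°C, 5% CO2 before 72 hours of exposure to two-drug dose matrices, with DMSO typically at 0.2%. CellTiter-Glo 2.0 luminescence gave viability, which was converted to inhibition. Vehicle wells were set to 0 and blank wells to 1. Combination Emax is the second-highest inhibition in the matrix, and Bliss excess is the observed combination effect minus the expected EA + EB − EA·EB, where EA and EB are the single-agent effects.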

[2] = tested on: NAMALWA (Burkitt's Lymphoma); test: as above
In short: as §1

[3] = tested on: T84 (Colorectal Carcinoma); test: as above
In short: as §1

IST-MEL1 (Melanoma) = test: as above
In short: as §1

[4] = tested on: IA-LM (Non-Small Cell Lung Carcinoma); test: as above
In short: as §1

[5] = tested on: COR-L88 (Small Cell Lung Carcinoma); test: as above
In short: as §1

GAK (Melanoma) = test: as above
In short: as §1

[6] = tested on: SK-CO-1 (Colorectal Carcinoma); test: as above
In short: as §1

[7] = tested on: ZR-75-30 (Breast Carcinoma); test: as above
In short: as §1

[8] = tested on: SNU-423 (Hepatocellular Carcinoma); test: as above
In short: as §1

[9] = tested on: CPC-N (Small Cell Lung Carcinoma); test: as above
In short: as §1

[10] = tested on: NCI-H3118 (Head and Neck Carcinoma); test: as above
In short: as §1

[11] = tested on: SCC-4 (Oral Cavity Carcinoma); test: as above
In short: as §1

NCI-H226 (Mesothelioma) = test: as above
In short: as §1

[12] = tested on: SKG-IIIa (Cervical Carcinoma); test: combination Emax (second highest fraction inhibited in the dose matrix, 72 h); higher = more inhibition; extreme values may be limits of the assay
In short: as §1

[13] = tested on: T84 (Colorectal Carcinoma); test: as above
In short: as §1

[14] = tested on: COR-L88 (Small Cell Lung Carcinoma); test: as above
In short: as §1

ES6 (Ewing's Sarcoma) = test: as above
In short: as §1

[15] = tested on: CPC-N (Small Cell Lung Carcinoma); test: as above
In short: as §1

[16] = tested on: SCC-4 (Oral Cavity Carcinoma); test: as above
In short: as §1
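For Bliss excess, mean over the matrix in this document: after 72 h of two-drug dosing.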

Structure (SMILES)	Bliss excess [1]	Bliss excess [2]	Bliss excess [3]	Bliss excess (IST-MEL1 (Melanoma))	Bliss excess [4]	Bliss excess [5]	Bliss excess (GAK (Melanoma))	Bliss excess [6]	Bliss excess [7]	Bliss excess [8]	Bliss excess [9]	Bliss excess [10]	Bliss excess [11]	Bliss excess (NCI-H226 (Mesothelioma))	combination Emax [12]	combination Emax [13]	combination Emax [14]	combination Emax (ES6 (Ewing's Sarcoma))	combination Emax [15]	combination Emax [16]
Cc1cc2ncnn2cc1Nc1ncc2c(n1)n(C1CCOCC1)c(=O)n2C [AZD7648] + COc1cc([C@@H]2c3cc4c(cc3[C@@H](O[C@@H]3O[C@@H]5CO[C@@H](C)O[C@H]5[C@H](O)[C@H]3O)[C@H]3COC(=O)[C@H]23)OCO4)cc(OC)c1O [Etoposide] (first compound max 10 µM, 7x7, partner max 10 µM)	0.0558	0.0745	-0.0105	0.0192	-0.0116	-0.0241	0.0732	0.0429	-0.0044	0.0551	0.0611	0.0669	0.0043	0.0215	0.551	0.398	0.36	0.36	0.906	0.469
C[C@@H](Nc1cc(F)cc(F)c1)c1cc(C(=O)N(C)C)cc2c(=O)cc(N3CCOCC3)oc12 [AZD8186] + C1CN(CCC1(C(=O)N[C@@H](CCO)C2=CC=C(C=C2)Cl)N)C3=NC=NC4=C3C=CN4 [AZD5363] (first compound max 10 µM, 7x7, partner max 10 µM)	-0.0225	0.0078	-0.0085	-0.013	0.001	-0.0269	-0.0303	0.0309	-0.0104	-0.0692	-0.0478	-0.022	-0.0276	-0.0272	0.303	0.337	0.171	0.365	0.33	0.383
C[C@@H](Nc1cc(F)cc(F)c1)c1cc(C(=O)N(C)C)cc2c(=O)cc(N3CCOCC3)oc12 [AZD8186] + CC(=O)c1c(C)c2cnc(Nc3ccc(N4CCNCC4)cn3)nc2n(C2CCCC2)c1=O [Palbociclib] (first compound max 10 µM, 7x7, partner max 10 µM)	-0.0661	0.0544	-0.0468	0.165	0.0122	0.0025	0.0192	0.0163	-0.0465	0.0188	-0.0198	0.0284	0.0328	-0.0662	0.235	0.235	0.201	0.412	0.262	0.327
C[C@@H](Oc1cc(-c2cnn(C3CCNCC3)c2)cnc1N)c1c(Cl)ccc(F)c1Cl [Crizotinib] + CC1=C(C(=CC=C1)Cl)NC(=O)C2=CN=C(S2)NC3=CC(=NC(=N3)C)N4CCN(CC4)CCO [Dasatinib] (first compound max 10 µM, 7x7, partner max 2 µM)	0.0166	0.0586	0.0051	0.0781	-0.0154	-0.0039	-0.0786	0.0048	-0.0431	-0.0038	-0.0989	0.0187	0.0487	-0.0295	0.734	0.58	0.435	0.751	0.584	0.913
C[C@@H](Oc1cc(-c2cnn(C3CCNCC3)c2)cnc1N)c1c(Cl)ccc(F)c1Cl [Crizotinib] + Cn1cnc2c(F)c(Nc3ccc(Br)cc3Cl)c(C(=O)NOCCO)cc21 [Selumetinib] (first compound max 10 µM, 7x7, partner max 10 µM)	-0.0048	-0.0259	-0.0143	0.0273	-0.0463	-0.0464	-0.0473	-0.043	-0.0416	-0.0459	-0.0663	-0.0222	-0.0514	-0.0387	0.254	0.576	0.409	0.59	0.62	0.496
CS(=O)(=O)CCNCc1ccc(-c2ccc3ncnc(Nc4ccc(OCc5cccc(F)c5)c(Cl)c4)c3c2)o1 [Lapatinib] + Cn1cnc2c(F)c(Nc3ccc(Br)cc3Cl)c(C(=O)NOCCO)cc21 [Selumetinib] (first compound max 10 µM, 7x7, partner max 10 µM)	0.001	-0.0003	0.058	0.0279	-0.0659	-0.0301	-0.0769	0.0335	-0.0329	-0.0083	-0.0085	0.0206	0.0318	-0.0542	0.393	0.763	0.215	0.553	0.251	0.557
CS(=O)(=O)CCNCc1ccc(-c2ccc3ncnc(Nc4ccc(OCc5cccc(F)c5)c(Cl)c4)c3c2)o1 [Lapatinib] + NC1(c2ccc(-c3nc4ccn5c(=O)[nH]nc5c4cc3-c3ccccc3)cc2)CCC1 [MK-2206] (first compound max 10 µM, 7x7, partner max 10 µM)	0.0359	0.0388	0.0453	0.0095	-0.0179	0.0151	0.0347	0.0289	-0.0604	0.0232	-0.0202	0.0618	0.0365	-0.0287	0.36	0.832	0.812	0.879	0.847	0.719
O=C(c1cc(Cc2n[nH]c(=O)c3ccccc23)ccc1F)N1CCN(C(=O)C2CC2)CC1 [Olaparib] + CC1(C)CCC(CN2CCN(c3ccc(C(=O)NS(=O)(=O)c4ccc(NCC5CCOCC5)c([N+](=O)[O-])c4)c(Oc4cnc5[nH]ccc5c4)c3)CC2)=C(c2ccc(Cl)cc2)C1 [Venetoclax] (first compound max 10 µM, 7x7, partner max 1 µM)	-0.0695	0.0044	-0.0524	0.0186	-0.0339	0.0604	-0.048	-0.0405	-0.0247	-0.0472	-0.0439	-0.028	-0.0455	-0.0428	0.147	0.065	0.373	0.173	0.166	0.0794
O=C(c1cc(Cc2n[nH]c(=O)c3ccccc23)ccc1F)N1CCN(C(=O)C2CC2)CC1 [Olaparib] + CN(CC[C@H](CSC1=CC=CC=C1)NC2=C(C=C(C=C2)S(=O)(=O)NC(=O)C3=CC=C(C=C3)N4CCC(CC4)[C@H](C5=CC=CC=C5C6=CC=C(C=C6)Cl)O)S(=O)(=O)C(F)(F)F)CCO [AZD4320] (first compound max 10 µM, 7x7, partner max 1 µM)	-0.0526	-0.0236	-0.0441	-0.0373	0.0167	0.0077	-0.0104	0.0256	-0.0327	-0.0182	-0.0247	-0.0182	-0.0161	-0.047	0.137	0.122	0.961	0.237	0.856	0.338
O=C(c1cc(Cc2n[nH]c(=O)c3ccccc23)ccc1F)N1CCN(C(=O)C2CC2)CC1 [Olaparib] + COc1nnc2ccc(N3CCC(c4ccc(OCCN5CCN(C)C(=O)[C@H]5C)cc4)CC3)nn12 [AZD5153] (first compound max 10 µM, 7x7, partner max 1 µM)	-0.0383	-0.0519	-0.0698	-0.045	-0.153	-0.0582	-0.0642	-0.0441	-0.0502	-0.0546	-0.0557	-0.0669	-0.0472	-0.0749	0.385	0.0881	0.214	0.292	0.369	0.322
O=C(c1cc(Cc2n[nH]c(=O)c3ccccc23)ccc1F)N1CCN(C(=O)C2CC2)CC1 [Olaparib] + Cc1c2c(nn1C)CSCc1cc(n(C)n1)CSc1cc(c3ccccc3c1)OCCCc1c(C(=O)O)n(C)c3c-2c(Cl)ccc13 [AZD5991] (first compound max 10 µM, 7x7, partner max 1 µM)	-0.0562	-0.0026	-0.0266	-0.0488	-0.063	0.0223	-0.0516	-0.0091	-0.0227	-0.0503	-0.0555	-0.006	-0.0491	-0.0583	0.128	0.111	0.227	0.168	0.215	0.128
N#Cc1cnc(Nc2cc(NC[C@H]3CNCCO3)c(C(F)(F)F)cn2)cn1 [SRA737] + O=c1[nH]cc(F)c(=O)[nH]1 [5-Fluorouracil] (first compound max 10 µM, 7x7, partner max 20 µM)	0.0284	0.0157	0.0458	-0.0223	-0.0622	-0.0088	-0.012	0.0188	-0.0283	0.0005	-0.036	0.0141	0.0952	-0.0281	0.34	0.785	0.435	0.161	0.861	0.628
Cc1nc(-c2cn3c(n2)-c2ccc(-c4cnn(C(C)(C)C(N)=O)c4)cc2OCC3)n(C(C)C)n1 [Taselisib] + O=C(Nc1ccc2[nH]nc(-c3ccncc3)c2c1)[C@@H]1CCN(CC(=O)N2CCN(c3ccc(-c4ncccn4)cc3)CC2)C1 [SCH772984] (first compound max 10 µM, 7x7, partner max 5 µM)	0.0751	0.0894	0.072	0.106	-0.0058	0.004	0.0592	0.0763	0.0556	0.0656	0.0196	0.0633	0.0899	0.0164	0.633	0.96	0.229	0.639	0.484	0.911
CC1(C)CCC(CN2CCN(c3ccc(C(=O)NS(=O)(=O)c4ccc(NCC5CCOCC5)c([N+](=O)[O-])c4)c(Oc4cnc5[nH]ccc5c4)c3)CC2)=C(c2ccc(Cl)cc2)C1 [Venetoclax] + CS(=O)(=O)CCNCc1ccc(-c2ccc3ncnc(Nc4ccc(OCc5cccc(F)c5)c(Cl)c4)c3c2)o1 [Lapatinib] (first compound max 1 µM, 7x7, partner max 10 µM)	-0.0674	-0.0072	-0.0151	-0.0234	-0.0665	-0.0146	0.0293	0.0109	0.0215	-0.0254	-0.019	-0.014	-0.0231	-0.0355	0.201	0.25	0.534	0.585	0.148	0.368
